# Results as given in US20230158091A1, “C[…] CARRIER” (New York Medical College, priority 2020, published 2023).
# “Also recorded” adds a separate entry of the source. Like-named read-outs stand apart in the source and are kept apart here.
# How the values were obtained:
# [1] = tested on: rats with cortical contusion injury (TBI); experiment: Spontaneous alternating T-maze after TBI; type: in vivo, rat
# Description: (§1) Cortical Contusion Injury. Adult male and female Sprague-Dawley and Wistar rats (225-350 gm) received a moderately severe cortical impact injury under anesthesia with a controlled weight drop apparatus mounted on a stereotactic apparatus. Anesthesia was induced with ketamine/xylazine (60/6 mg/kg i.p.). A midline incision was performed to expose the skull. The dura was exposed with a 4.4-mm craniotomy centered at 1.4-mm posterior and 2.4-mm lateral to the bregma for placement of the 4-mm diameter foot-plate of the contusion apparatus. Contusion injury force of 600 g/cm was produced with a 20-g weight and dropping distance of 30-cm. The 20-g weight was released into a vertical guided tube that strikes the foot plate positioned at the end of the tube which is in contact with the dura. To avoid brain penetration, the foot-plate was prevented by a guide from moving greater than 2.5-mm into the dura.
# (§2) Drug Administration. Rats in the TBI+CBD group received the gelfoam sponge infused with CBD (20.0 mg/ml) directly to the open contusion site overlying the dura within 2 min after the weight was removed from the apparatus. CBD was also administered systemically 10 min following surgery at 40 mg/kg followed by 20 mg/kg for all other injection days. TBI rats received gelfoam with coconut or olive oil directly onto the open contusion site overlying the dura following their respective surgical contusions. TBI rats also received vehicle, either coconut oil, olive oil, or PBS systemically at equal volumes that were administered to CBD treated animals according to weight (0.1-0.4 cc).
# The spontaneous alternating T-maze was utilized at 3 and 28 days following TBI or TBI+CBD in order to assess spatial sense, memory and cognitive ability. Naïve untreated rats spontaneously alternated between left and right arms. There was a tendency of asymmetry to the left arm, but the number of entries was not great enough to exclude the possibility that the difference was due to random sampling variability (L: 6.3±1.7 vs. R: 4.7±0.52, N=10, two-tailed t=2.1, df=18, p=0.05). At 3 days following TBI to the left hemisphere, arm entry was impaired.
# [2] = tested on: rats with cortical contusion injury (TBI); experiment: Cortical contusion injury, hippocampal cell counts after H&E staining; type: in vivo, rat
# Description: as §1, §2
# In the contralateral CAL injured cells were intermingled among healthy appearing round cell bodies. […] In contrast to the TBI+vehicle group, the ipsilateral hippocampus was predominantly intact in all CBD treated animals but with disproportional levels of injured cells throughout the subfields. There were varied numbers of pyknotic, acidophilic, irregular shaped CA1 and CA3a (not illustrated) neurons.
# Since 9 of 13 animals from the TBI+vehicle group had spared ipsilateral hippocampal tissue, counting of injured vs. healthy appearing cells of the CA1 subregion was carried out in a subset of animals from the TBI+vehicle group and compared with the CBD treated group to estimate whether injury on one side is related to the amount of injury on the other side. Measurements of the CA1 area and total volumetric measurements of the ipsilateral hemisphere were used for correlating ipsilateral injury with ipsilateral and contralateral hippocampal cellular injury.
# [3] = tested on: rats with spinal cord contusion (SCI); experiment: Spinal cord contusion (SCI), lesion and locomotor recovery; type: in vivo, rat
# From the text: FIG. 6 depicts schematic overview perspectives of an internal CBD absorbable medical carrier applied to the internal wound in the rat with systemic supplementation with a spinal cord contusion (SCI).
# [4] = cited from earlier work
# [5] = tested on: rats with cortical contusion injury (TBI); experiment: Cortical contusion injury (weight drop TBI), lesion histology; type: in vivo, rat
# Description: as §1, §2
# After direct delivery of the CBD internal gelatinized matrix, dental acrylic was used to close the wound. Animals became active 30-40 min following surgery.
# FIG. 5 depicts schematic overview perspectives of an internal CBD absorbable medical carrier applied to the internal brain wound in the rat with systemic supplementation.
# [6] = tested on: rats with cortical contusion injury (TBI); experiment: Novel Object Recognition test after TBI; type: in vivo, rat
# Description: as §1, §2
# The Novel Object Recognition test was utilized to evaluate the short-term and working memory of the TBI+CBD group compared to control TBI levels at 27-29 days and naive untreated young rats. Following habituation, animals could explore an open field with two objects for 3 consecutive days by introducing two same objects on day 1 and adding a novel object on days 2 and 3 without visual cues.
# [7] = tested on: rats with cortical contusion injury (TBI); experiment: Beam balance test (vestibulomotor function) after TBI; type: in vivo, rat; conditions: compared to TBI untreated rats; day 14 through day 28
# Description: as §1
# Drug Administration. Rats in the TBI+CBD group received the gelfoam sponge infused with CBD (20.0 mg/ml) directly to the open contusion site overlying the dura within 2 min after the weight was removed from the apparatus. CBD was also administered systemically 10 min following surgery at 40 mg/kg followed by 20 mg/kg for all other injection days. […]
# Vestibulomotor function was determined with the beam balance test in the TBI untreated and TBI+CBD treated rats. […]
# [8] = comparison of both hemispheres, p=0.037
compound,measurement,setting,value
"C=C(C)[C@@H]1CCC(C)=C[C@H]1c1c(O)cc(CCCCC)cc1O [CBD, cannabidiol]",time to choose right or left,"[1]; 3 or 28 days post-injury, not significantly different from TBI+vehicle",13 to 33 s
same,asymmetry of arm entry to the left,[1]; 3 days following TBI to the left hemisphere,highly significant
same,percent alternating in T-maze,"[1]; 28 days after TBI, TBI 17.5±11.8%",52.5±8.53%
same,spontaneous alternation (in words),[1]; after 28 days,significant increase in percent alternating
same,"hippocampal injury at the cellular level (H&E, in words)",[2]; CBD local and peripheral delivery system,partially attenuated
same,contralateral hippocampus hilus irregular stained/injured cells,"[2]; TBI+vehicle 30.4 4.17, p=0.002",7.63±1.86
same,contralateral hippocampus CA1 irregular stained/injured cells,"[2]; TBI+vehicle 53.3±10.9, p=0.045",14.22±2.2
same,"number of injured CA1 neurons, contralateral side (comparison of both hemispheres)",[2]; [8],14.21±2.29
same,"number of injured CA1 neurons, ipsilateral side",[2]; [8],172.75±70
same,percent of CA1 contralateral injured cell counts relative to TBI+vehicle,[2]; relative to TBI+vehicle,26.7±4.37%
same,ratio of ipsilateral injured CA1 neurons to healthy appearing CA1 pyramidal neurons,[2]; versus TBI+vehicle,unchanged
same,locomotor recovery after spinal cord contusion (in words),"[3]; aged female rats, weeks 5 and 6 with continued CBD treatment",significant locomotor improvement
same,"spinal cord lesion area / tissue preservation (Luxol Fast Blue, in words)",[3]; internal CBD carrier plus 1 week of daily CBD injections and 3 weeks of intermittent CBD treatment,reduced volumetric lesion area
same,absorbed in the body,[4]; ingestion,5-20%
same,absorbed in the body,[4]; vaping or smoking,30-60%
same,"area affected, normalized to TBI+vehicle treated group","[5]; Bregma AP 1.2 to −6.8, local sponge plus systemic CBD, p=0.0008",34.04±6.38%
same,ipsilateral cortical/hippocampal lesion volume,"[5]; approximated from 12 levels, 4 weeks after TBI, gelfoam sponge with CBD 20.0 mg/ml at contusion site plus systemic CBD 40 then 20 mg/kg, TBI+vehicle 69.85±7.2",21.4±3.5 mm^3
same,lesion size after brain contusion (in words),[5]; compared to contusion alone / TBI+vehicle,reduced ipsilateral lesion size; also recorded: decreased the size of the ipsilateral lesion
same,total anterior to posterior lesion measurement,"[5]; local sponge plus systemic CBD, TBI control 6.586±0.2, p=0.008",5.867±0.17 mm
same,lesion area at posterior levels (Bregma AP: −6.8 or further),"[5]; local sponge plus systemic CBD, comparison value 1.22±0.35, p=0.347",0.92±0.17 mm^2
same,overall mobility,[6]; 27-29 days post-TBI,greater than TBI rats and similar to naïve untreated controls
same,speed of travel,"[6]; 27-29 days post-TBI, p=0.032",greater speed than TBI rats
same,distance travelled,"[6]; averaged from days 2+3 of testing, 27-29 days post-TBI, p=0.03",greater distance than TBI+vehicle treated rats
same,number of episodes of interacting with old and novel objects,"[6]; compared to TBI rats, not significantly different from naïve rats",much greater
same,time spent with the novel object,"[6]; compared to TBI, not significantly different from naïve rats",much greater
same,beam balance performance / vestibulomotor function (in words),[7],improved balance and locomotor function within a few days; also recorded: significant improvement
